According to patent US12414958B2, “Medicament and use thereof for treating bacterial infections involving biofilm” (Debiopharm International S.A., priority 2019, dated 2025):
Values joined by “and” are separate entries in the source; they are usually repeats but may differ in a detail not shown here. Identical values can stand only once.

How the values were obtained:
[1] = system: S. aureus ATCC 43300 (MRSA); test: Mouse tissue cage model of MRSA infection, 11-day treatment at lower dosage (Example 3); type: in vivo, Staphylococcus aureus; details: for Cure rate (%) / adherent bacteria reduction from baseline (mean±SD): 24-h biofilm; for Cure rate (%) / adherent bacteria reduction from baseline (mean±SD) / day on which bactericidal effect (mean reduction of bacterial load by ≥3 Log10) on planktonic bacteria was exerted / Planktonic day 3 Δlog from baseline (individual animal) / Planktonic day 6 Δlog from baseline (individual animal) / Planktonic day 9 Δlog from baseline (individual animal) / Planktonic day 11 Δlog from baseline (individual animal): 11-day treatment; for Cure rate (%): cages without growth / total cages; for adherent bacteria reduction from baseline (mean±SD): n=6, given as positive reduction; for Adherent Δlog from baseline (individual animal) / Adherent Mean: medium after sonication of explanted tissue cages, day 14 vs day 1; for Adherent Mean: group mean; for day on which bactericidal effect (mean reduction of bacterial load by ≥3 Log10) on planktonic bacteria was exerted: planktonic bacteria in tissue cage fluid; for Planktonic day 3 Δlog from baseline (individual animal) / Planktonic day 6 Δlog from baseline (individual animal) / Planktonic day 9 Δlog from baseline (individual animal) / Planktonic day 11 Δlog from baseline (individual animal) / Planktonic day 14 Δlog from baseline (individual animal) / Planktonic day 3 Mean / Planktonic day 6 Mean / Planktonic day 9 Mean / Planktonic day 11 Mean / Planktonic day 14 Mean: tissue cage fluid; for Planktonic day 3 Δlog from baseline (individual animal) / Planktonic day 6 Δlog from baseline (individual animal) / Planktonic day 9 Δlog from baseline (individual animal) / Planktonic day 11 Δlog from baseline (individual animal): baseline day 1; for Planktonic day 14 Δlog from baseline (individual animal): 3 days after end of 11-day treatment; for Planktonic day 3 Mean / Planktonic day 6 Mean / Planktonic day 9 Mean / Planktonic day 11 Mean / Planktonic day 14 Mean: group mean Δlog from baseline
Text: The purpose of this study was to evaluate the efficacy of Debio 1450 BES alone and in combination with Daptomycin (DAP) in the mouse tissue cage model of implant-associated infections caused by methicillin resistant Staphylococcus (S.) aureus (MRSA) at lower dosage and longer treatment duration than used in the previous study (Example 2). The efficacy against 24-h biofilm of S. aureus ATCC 43300 (MRSA) was investigated. Employing a small initial inoculum (ca. 300 CFU/cage) together with a 24-h biofilm allowed to simulate clinical settings of an acute implant infection and/or surgical debridement.
The Debio 1450 BES dose of 20 mg/kg BID reflects the most current HED of 240 mg BID obtained in the recent PK studies (50 mg/kg BID was used in Example 2 based on the previous PK analysis). […] The treatment duration of 11 days was selected to compensate lowering of the dose of Debio 1450 BES (5.5-day treatment was used in Example 2) and is in line with the prolonged antibiotic therapy applied in patients with prosthetic joint infections.
The same mouse tissue cage model was employed as described in Example 2 above. The animals received antibiotic treatment i.p. on day 1 post-infection through day 11. One group received only 5% glucose and served as infected, untreated control group (vehicle). […] Debio 1450 BES and vehicle were administered bid, and DAP was administered qdam. In the present study we investigated the efficacy of lower dosage in a prolonged treatment duration.
Five to 6 days before infection, TCF was aspirated to ascertain the sterility of implanted cages by TCF plating on blood agar plates. TCF was aspirated and plated on day 1 (before treatment) to confirm the establishment of infection. In addition, the number of bacteria in TCF was determined on day 3 (before the first injection that day), on day 6, day 9 and on day 11 (before last treatment), and on day 14 (before explantation of the cages) to evaluate the treatment efficacy against planktonic bacteria. The mouse number and bacterial count for the given cage is reported to analyse the time course of antibacterial activity of the tested drugs. The efficacy against biofilm-embedded bacteria is assessed qualitatively and quantitatively following aseptic explantation of the tissue cages 3 days after the completion of treatment. The 3 days of resting period helped to avoid the antibiotic carryover effect. Upon explantation, cages were washed twice with phosphate buffered saline (PBS) (Lot #5060914) and immediately transferred into 5 mL 0.9% NaCl (Lot #L171095). Following 30 s vortexing, sonication (3 min at 130 W), and an additional 30 s vortexing step the numbers of bacteria dispersed from biofilm was determined by plating. The sonicated cages were washed once with PBS, transferred into 5 mL TSB (Lot #0286463), and incubated for 48 h at 37° C., with an additional vortexing step after 24 h of incubation. After the incubation, tubes were vortexed again and bacterial regrowth was assessed visually. In addition, 100 μL of each culture was plated on blood agar plates to ascertain the regrowth. A positive culture is defined as a treatment failure. The efficacy of treatment against adherent bacteria is expressed as the cure rate (in percent), defined as the number of cages without growth divided by the total number of cages in the individual treatment group. In addition, single colonies from the re-growth plates were used to achieve the 0.5 McFarland. 100 μl of each 0.5 McFarland culture was plated on MHA plates containing the antibiotics corresponding to the treatment used (note: bacteria from mice treated with Debio 1450 will be plated on plates containing Debio 1452).

ATCC 43300 MRSA strain = test: Induction of resistance studies, ex vivo bacterial exposure to 4×MIC (Example 1); type: cell-based, Staphylococcus aureus; details: ex vivo exposure to 4×MIC; single and combination therapy; 24h or 72h biofilm
Procedure: Two experimental settings were used in this study to evaluate the treatment efficacies against early (24h) and/or mature (72h) MRSA catheter formed biofilms. Briefly, mice were anaesthetised by an IP injection of about 120 μl a mix of ketamine (50 mg/kg) and xylazine (10 mg/kg) (4 mL ketamine+2 mL xylazine+10 mL saline). Flank on the right side was shaved and then disinfected by 3 consecutive applications of betadine. A cutaneous and then subcutaneous (SC) incisions of 0.2 cm were made under sterile conditions and a 1 cm segment of polyurethane catheter (Ref. No. ES-04730 Arrow international) cut into 2 longitudinal fragments was inserted SC (into the incision and then pushed further under the skin, about 2 cm away from the incision). The inoculation was done simultaneously by placing 50 μl of the bacterial culture onto the catheter (10^6 CFU of ATCC 43300 MRSA strain). The incision was stitched up and disinfected. The day of the infection was referred to as Day0 (D0). To ensure that the study was conducted in sterile conditions from the start to the end of the experiment, non-infected mice (sentinel group) were included. […] In both 24 h and 72h biofilm settings, two groups of infected non-treated animals (Vehicle controls) were evaluated for bacterial counts: at baseline (24h or D1 [for 24-h biofilm] and 72h or D3 [for 72-h biofilm] post infection, i.e. time points corresponding to treatments initiations) and at the termination of treatment duration (D6 [for 24-h biofilm] and D8 [for 72-h biofilm] post infection). Post treatment CFUs were counted on D6 or D8 and results were expressed as Log10 CFU/g of catheter (Mean±SEM). The limit of detection was determined as being 1 Log10 CFU/g of catheter. Changes of CFU/g of catheter (Δ Log10) from the baseline (D1 or D3 for 24-h and 72-h biofilm, respectively) and cure rates (corresponding to the percentage of mice without catheter-associated bacteria within a given treatment group) were also calculated. In vivo induction of antibiotic-resistant bacteria was analysed for all tested antibiotics.

SMILES: Cc1c(CN(C)C(=O)/C=C/c2cnc3c(c2)CCC(=O)N3COP(=O)(O)O)oc2ccccc12 [Debio 1450, {6-[(1E)-3-{methyl [(3-methyl-1-benzofuran-2-yl)methyl]amino}-3-oxoprop-1-en-1-yl]-2-oxo-3,4-dihydro-1,8-naphthyridin-1 (2H)-yl} methyl dihydrogen phosphate]
- Cure rate (%) [1]: 83%
- adherent bacteria reduction from baseline (mean±SD) [1]: 4.35±2.5 log 10 CFU/mL
- Adherent Δlog from baseline (individual animal) [1]: −4.2 log 10 CFU/mL (2×) and 0.43 log 10 CFU/mL and −6 log 10 CFU/mL (3×)
- Adherent Mean [1]: −4 log 10 CFU/mL
- day on which bactericidal effect (mean reduction of bacterial load by ≥3 Log10) on planktonic bacteria was exerted [1]: 6 day
- Planktonic day 3 Δlog from baseline (individual animal) [1]: −1.46 Log10 and −3.68 Log10 and −2.22 Log10 and −3.33 Log10 and −3.03 Log10 and −2.37 Log10
- Planktonic day 6 Δlog from baseline (individual animal) [1]: −3.1 Log10 and −3.7 Log10 (2×) and −4.2 Log10 and −3.3 Log10 and −3 Log10
- Planktonic day 9 Δlog from baseline (individual animal) [1]: −3.1 Log10 and −3.7 Log10 and −6.2 Log10 and −3.3 Log10 and −3 Log10 and −5.3 Log10
- Planktonic day 11 Δlog from baseline (individual animal) [1]: −3.1 Log10 and −3.7 Log10 and −6.2 Log10 and −3.3 Log10 and −3 Log10 and −5.3 Log10
- Planktonic day 14 Δlog from baseline (individual animal) [1]: −3.1 Log10 and −3.7 Log10 and −0.2 Log10 and −3.3 Log10 and −3 Log10 and −5.3 Log10
- Planktonic day 3 Mean [1]: −3 Log10
- Planktonic day 6 Mean [1]: −3.50 Log10
- Planktonic day 9 Mean [1]: −4.10 Log10
- Planktonic day 11 Mean [1]: −4.10 Log10
- Planktonic day 14 Mean [1]: −3 Log10

SMILES: CCCCCCCCCC(=O)N[C@@H](Cc1c[nH]c2ccccc12)C(=O)N[C@H](CC(N)=O)C(=O)N[C@@H](CC(=O)O)C(=O)N[C@@H]1C(=O)NCC(=O)N[C@@H](CCCN)C(=O)N[C@@H](CC(=O)O)C(=O)N[C@H](C)C(=O)N[C@@H](CC(=O)O)C(=O)NCC(=O)N[C@H](CO)C(=O)N[C@@H]([C@H](C)CC(=O)O)C(=O)N[C@@H](CC(=O)c2ccccc2N)C(=O)O[C@@H]1C [Daptomycin]
- emergence of resistant mutants (ATCC 43300 MRSA strain): no emergence of resistant mutants
- Cure rate (%) [1]: 50%
- adherent bacteria reduction from baseline (mean±SD) [1]: 3.15±2.74 log 10 CFU/mL
- Adherent Mean [1]: −3 log 10 CFU/mL
- Adherent Δlog from baseline (individual animal) ([1]; listed as DAP): −4.2 log 10 CFU/mL and −0.3 log 10 CFU/mL and 0.24 log 10 CFU/mL and −6 log 10 CFU/mL (2×) and −2.5 log 10 CFU/mL
- day on which bactericidal effect (mean reduction of bacterial load by ≥3 Log10) on planktonic bacteria was exerted [1]: 6 day
- Planktonic day 3 Δlog from baseline (individual animal) ([1]; listed as DAP): −2.56 Log10 and −2.18 Log10 and −3.12 Log10 and −2.06 Log10 and −3.41 Log10 and −3.62 Log10
- Planktonic day 6 Δlog from baseline (individual animal) ([1]; listed as DAP): −2.7 Log10 and −3.5 Log10 (2×) and −3.4 Log10 (2×) and −3.6 Log10
- Planktonic day 9 Δlog from baseline (individual animal) ([1]; listed as DAP): −4.6 Log10 and −5.5 Log10 and −2.7 Log10 and −3.4 Log10 and −3.6 Log10 (2×)
- Planktonic day 11 Δlog from baseline (individual animal) ([1]; listed as DAP): −4.6 Log10 and −2.9 Log10 and −2.70 Log10 and −3.4 Log10 and −5.2 Log10 and −3.6 Log10
- Planktonic day 14 Δlog from baseline (individual animal) ([1]; listed as DAP): −4.6 Log10 and −1.1 Log10 and −1.5 Log10 and −3.4 Log10 and −0.6 Log10 and −3.6 Log10
- Planktonic day 3 Mean [1]: −3 Log10
- Planktonic day 6 Mean [1]: −3.33 Log10
- Planktonic day 9 Mean [1]: −3.9 Log10
- Planktonic day 11 Mean [1]: −3.73 Log10
- Planktonic day 14 Mean [1]: −2 Log10
